These compounds were tested against T1, human orexin type 2 receptor (Homo sapiens, UniProt O43614) (assay: Measurement of orexin type 2 receptor agonist activity (calcium indicator fluorescence, CHO cells forcibly expressing human OX2 receptor)). Conditions: compound at 3 μM; 0% = DMSO, 100% = orexin A (human) 10 nM.
T1 construct: expressed in transfected cells
T1 sequence (O43614 1-444): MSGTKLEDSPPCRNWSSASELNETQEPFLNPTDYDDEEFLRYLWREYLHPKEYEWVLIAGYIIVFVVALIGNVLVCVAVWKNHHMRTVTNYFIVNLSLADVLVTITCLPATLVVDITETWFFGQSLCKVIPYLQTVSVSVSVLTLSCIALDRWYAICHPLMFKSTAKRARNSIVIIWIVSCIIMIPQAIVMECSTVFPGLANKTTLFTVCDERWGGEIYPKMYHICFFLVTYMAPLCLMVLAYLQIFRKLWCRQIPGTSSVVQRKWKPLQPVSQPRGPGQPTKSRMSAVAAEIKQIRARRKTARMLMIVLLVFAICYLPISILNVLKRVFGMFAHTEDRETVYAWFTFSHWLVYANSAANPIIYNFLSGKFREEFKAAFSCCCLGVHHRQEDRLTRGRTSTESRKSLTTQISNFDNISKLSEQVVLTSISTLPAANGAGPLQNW
Assay type: cell-based
Method in brief: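 Agonist response normalised between vehicle (0%) and orexin A at 10 nM final (100%), from kinetic Fluo-4 calcium signals recorded for about 2 min after compound addition. Cells: stable human OX2R CHO clone, dye-loaded 30 min at 37 °C plus 30 min at room temperature.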

OX2R agonist activity (3 μM, %) | Compound
93% | CS(=O)(=O)N[C@@H]1[C@H](Cc2cccc(-c3ccccc3)c2F)N(C(=O)C23CC(C2)C3)CC1(F)F [Example 78, N-{(2S,3R)-1-(bicyclo[1.1.1]pentane-1-carbonyl)-4,4-difluoro-2-[(2-fluoro[1,1′-biphenyl]-3-yl)methyl]pyrrolidin-3-yl}methanesulfonamide]
94% | CCS(=O)(=O)N[C@H]1[C@@H](F)CN(C(=O)C23CC(C2)C3)[C@H]1Cc1cccc(-c2ccccc2)c1F [Example 308, N-{(2S,3R,4S)-1-(bicyclo[1.1.1]pentane-1-carbonyl)-4-fluoro-2-[(2-fluoro[1,1′-biphenyl]-3-yl)methyl]pyrrolidin-3-yl}ethanesulfonamide]
95% | CCS(=O)(=O)N[C@@H]1[C@H](Cc2cccc(-c3cc(C)cc(F)c3)c2F)N(C(=O)N(C)C)CC1(F)F [Example 447, (2S,3R)-2-[(2,3′-difluoro-5′-methyl[1,1′-biphenyl]-3-yl)methyl]-3-[(ethanesulfonyl)amino]-4,4-difluoro-N,N-dimethylpyrrolidine-1-carboxamide]
90% | O=C(N1CCC1)N1C[C@H](F)[C@H](NS(=O)(=O)C2CC2)[C@@H]1Cc1cccc(-c2cc(F)cc(F)c2)c1F [Example 544, N-{(2S,3R,4S)-1-(azetidine-1-carbonyl)-4-fluoro-2-[(2,3′,5′-trifluoro[1,1′-biphenyl]-3-yl)methyl]pyrrolidin-3-yl}cyclopropanesulfonamide]
91% | CCS(=O)(=O)N[C@@H]1[C@H](Cc2cccc(-c3cc(Cl)ccc3F)c2F)N(C(=O)C2CC2)CC1(F)F [Example 251, N-[(2S,3R)-2-[(5′-chloro-2,2′-difluoro[1,1′-biphenyl]-3-yl)methyl]-1-(cyclopropanecarbonyl)-4,4-difluoropyrrolidin-3-yl]ethanesulfonamide]
94% | CN(C)S(=O)(=O)N[C@@H]1[C@H](Cc2cccc(-c3cc(F)cc(F)c3)c2F)N(C(=O)N2CCC2)CC1(F)F [Example 548, N′-{(2S,3R)-1-(azetidine-1-carbonyl)-4,4-difluoro-2-[(2,3′,5′-trifluoro[1,1′-biphenyl]-3-yl)methyl]pyrrolidin-3-yl}-N,N-dimethylsulfuric diamide]
94% | CC(C)C(=O)N1CC(F)(F)[C@H](NS(C)(=O)=O)[C@@H]1Cc1cccc(-c2cccc(F)c2F)c1 [Example 131, N-[(2S,3R)-2-[(2′,3′-difluoro[1,1′-biphenyl]-3-yl)methyl]-4,4-difluoro-1-(2-methylpropanoyl)pyrrolidin-3-yl]methanesulfonamide]
84% | CCS(=O)(=O)N[C@@H]1[C@H](Cc2cccc(-c3cc(F)cc(F)c3)c2F)N(C(=O)[C@H]2CCCO2)CC1(F)F [Example 454, N-{(2S,3R)-4,4-difluoro-1-[(2R)-oxolane-2-carbonyl]-2-[(2,3′,5′-trifluoro[1,1′-biphenyl]-3-yl)methyl]pyrrolidin-3-yl}ethanesulfonamide]
97% | CCS(=O)(=O)N[C@@H]1[C@H](Cc2cccc(-c3cc(F)c(F)c(F)c3)c2F)N(C(=O)C2CCO2)CC1(F)F (stereo partly drawn) [Example 473, N-{(2S,3R)-4,4-difluoro-1-(oxetane-2-carbonyl)-2-[(2,3′,4′,5′-tetrafluoro[1,1′-biphenyl]-3-yl)methyl]pyrrolidin-3-yl}ethanesulfonamide]
97% | CCS(=O)(=O)N[C@H]1[C@@H](F)CN(C(=O)C(C)(C)O)[C@H]1Cc1cccc(-c2cccc(F)c2F)c1F [Example 222, N-{(2S,3R,4S)-4-fluoro-1-(2-hydroxy-2-methylpropanoyl)-2-[(2,2′,3′-trifluoro[1,1′-biphenyl]-3-yl)methyl]pyrrolidin-3-yl}ethanesulfonamide]
93% | Cc1cc(F)cc(-c2cccc(C[C@H]3[C@@H](NS(=O)(=O)C4CC4)[C@@H](F)CN3C(=O)C3CCO3)c2F)c1 (stereo partly drawn) [Example 491, N-[(2S,3R,4S)-2-[(2,3′-difluoro-5′-methyl[1,1′-biphenyl]-3-yl)methyl]-4-fluoro-1-(oxetane-2-carbonyl)pyrrolidin-3-yl]cyclopropanesulfonamide]
94% | CCS(=O)(=O)N[C@@H]1[C@H](Cc2cccc(-c3cccc(F)c3)c2F)N(C(=O)C2CC2)CC1(F)F [Example 202, N-{(2S,3R)-1-(cyclopropanecarbonyl)-2-[(2,3′-difluoro[1,1′-biphenyl]-3-yl)methyl]-4,4-difluoropyrrolidin-3-yl}ethanesulfonamide]
96% | CCS(=O)(=O)N[C@@H]1[C@H](Cc2cccc(-c3cc(F)cc(F)c3)c2F)N(C(=O)N(C)C)CC1(F)F [Example 282, (2S,3R)-3-[(ethanesulfonyl)amino]-4,4-difluoro-N,N-dimethyl-2-[(2,3′,5′-trifluoro[1,1′-biphenyl]-3-yl)methyl]pyrrolidine-1-carboxamide]
102% | CCS(=O)(=O)N[C@H]1[C@@H](F)CN(C(=O)C2CCO2)[C@H]1Cc1cccc(-c2cccc(Cl)c2)c1F (stereo partly drawn) [Example 422, N-[(2S,3R,4S)-2-[(3′-chloro-2-fluoro[1,1′-biphenyl]-3-yl)methyl]-4-fluoro-1-(oxetane-2-carbonyl)pyrrolidin-3-yl]ethanesulfonamide]
101% | CCS(=O)(=O)N[C@H]1[C@@H](F)CN(C(=O)[C@H]2CCCO2)[C@H]1Cc1cccc(-c2cc(F)ccc2F)c1F [Example 416, N-{(2S,3R,4S)-4-fluoro-1-[(2R)-oxolane-2-carbonyl]-2-[(2,2′,5′-trifluoro[1,1′-biphenyl]-3-yl)methyl]pyrrolidin-3-yl}ethanesulfonamide]
106% | Cc1cccc(-c2cccc(C[C@H]3[C@@H](NS(=O)(=O)C4CC4)[C@@H](F)CN3C(=O)N(C)C)c2F)c1 [Example 538, (2S,3R,4S)-3-[(cyclopropanesulfonyl)amino]-4-fluoro-2-[(2-fluoro-3′-methyl[1,1′-biphenyl]-3-yl)methyl]-N,N-dimethylpyrrolidine-1-carboxamide]
98% | CCS(=O)(=O)N[C@H]1[C@@H](F)CN(C(=O)C2CC2)[C@H]1Cc1cccc(-c2cc(C)cc(F)c2)c1F [Example 515, N-{(2S,3R,4S)-1-(cyclopropanecarbonyl)-2-[(2,3′-difluoro-5′-methyl[1,1′-biphenyl]-3-yl)methyl]-4-fluoropyrrolidin-3-yl}ethanesulfonamide]
97% | Cc1cc(F)cc(-c2cccc(C[C@H]3[C@@H](NS(=O)(=O)C4CC4)C(F)(F)CN3C(=O)N(C)C)c2F)c1 [Example 522, (2S,3R)-3-[(cyclopropanesulfonyl)amino]-2-[(2,3′-difluoro-5′-methyl[1,1′-biphenyl]-3-yl)methyl]-4,4-difluoro-N,N-dimethylpyrrolidine-1-carboxamide]
93% | CCS(=O)(=O)N[C@@H]1[C@H](Cc2cccc(-c3cccc(F)c3F)c2F)N(C(=O)C2(O)CCC2)CC1(F)F [Example 274, N-{(2S,3R)-4,4-difluoro-1-(1-hydroxycyclobutane-1-carbonyl)-2-[(2,2′,3′-trifluoro[1,1′-biphenyl]-3-yl)methyl]pyrrolidin-3-yl}ethanesulfonamide]
98% | CS(=O)(=O)N[C@@H]1[C@H](Cc2cccc(-c3ccccc3)c2F)N(C(=O)C2(O)CCC2)CC1(F)F [Example 76, N-[(2S,3R)-4,4-difluoro-2-[(2-fluoro[1,1′-biphenyl]-3-yl)methyl]-1-(1-hydroxycyclobutane-1-carbonyl)pyrrolidin-3-yl]methanesulfonamide]
93% | CS(=O)(=O)N[C@H]1[C@@H](F)CN(C(=O)C23CC(C2)C3)[C@H]1Cc1cccc(-c2cc(F)cc(F)c2)c1F [Example 374, N-{(2S,3R,4S)-1-(bicyclo[1.1.1]pentane-1-carbonyl)-4-fluoro-2-[(2,3′,5′-trifluoro[1,1′-biphenyl]-3-yl)methyl]pyrrolidin-3-yl}methanesulfonamide]
96% | CCS(=O)(=O)N[C@H]1[C@@H](F)CN(C(=O)C2CCO2)[C@H]1Cc1cccc(-c2cccc(F)c2)c1F (stereo partly drawn) [Example 217, N-[(2S,3R,4S)-2-[(2,3′-difluoro[1,1′-biphenyl]-3-yl)methyl]-4-fluoro-1-(oxetane-2-carbonyl)pyrrolidin-3-yl]ethanesulfonamide]
95% | CCS(=O)(=O)N[C@H]1[C@@H](F)CN(C(=O)C2CC2)[C@H]1Cc1cccc(-c2cccc(C)c2)c1F [Example 514, N-{(2S,3R,4S)-1-(cyclopropanecarbonyl)-4-fluoro-2-[(2-fluoro-3′-methyl[1,1′-biphenyl]-3-yl)methyl]pyrrolidin-3-yl}ethanesulfonamide]

Source: patent US20230040770A1, “HETEROCYCLIC COMPOUND AND USE THEREOF” (TAKEDA PHARMACEUTICAL COMPANY LIMITED, priority 2019, published 2023)
